# Test results reported in US9133207B2, “Tetrandrine derivatives with substituted 5-carbon, preparation method and use thereof” (Hangzhou Bensheng Pharmaceutical Co., Ltd., priority 2011, dated 2015).
# Experiments:
# [1] = system: H9 (acute lymphoblastic leukemia, ALL); experiment: Leukemia cell growth inhibition, MTT, 72 h (Example 5); format: cell-based, human; conditions: Homo sapiens; 72 h, MTT
# Procedure, shortened: (§1)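 6000 cells per well were seeded in RPMI 1640 with 10% FBS, exposed to graded concentrations of 5-substituted tetrandrine derivatives, and held 72 hours at 37° C, 5% CO2. Viable cell concentration was then measured by MTT.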
# [2] = system: Jurkat (acute lymphoblastic leukemia, ALL); experiment: as above; format: cell-based, human; conditions: Homo sapiens, Jurkat; 72 h, MTT
# Procedure, shortened: as §1
# [3] = system: K562/adr (drug-resistant, chronic myeloid leukemia, CML); experiment: as above; format: cell-based, human; conditions: Homo sapiens, K562/Adr; 72 h, MTT
# Procedure, shortened: as §1
# [4] = system: Kasumi-1 (acute myeloid leukemia M2 type, AML-M2); experiment: as above; format: cell-based, human; conditions: Homo sapiens, Kasumi 1
# Procedure, shortened: as §1
# [5] = system: NB4 (acute promyelocytic leukemia, AML); experiment: as above; format: cell-based, human; conditions: Homo sapiens; 72 h, MTT
# Procedure, shortened: as §1
# [6] = system: RPMI8226 (multiple myeloma); experiment: Multiple myeloma cell growth inhibition, MTT, 72 h (Example 6); format: cell-based, human; conditions: Homo sapiens, RPMI-8226; 72 h, MTT, RPMI8226
# Procedure, shortened: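 RPMI8226 cells (6000 per well) in RPMI 1640 with 10% FBS were exposed to a range of tetrandrine derivative concentrations for 72 h at 37 °C under 5% CO2. Viable cell concentration was then measured by MTT.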
# [7] = system: CaES-17 (esophageal cancer cell); experiment: Solid tumor cell growth inhibition, MTT, 72 h (Example 7); format: cell-based, human; conditions: Homo sapiens, CaEs17; 72 h, MTT, CAES-17
# Procedure, shortened: (§2)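 MTT viability after 72 h compound exposure; 4000 cells/well seeded 24 h beforehand in DMEM high glucose, 10% FBS, 37 °C, 5% CO2. Untreated control taken as 100%.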
# [8] = system: Hep-2 (laryngeal carcinoma); experiment: as above; format: cell-based, human; conditions: Homo sapiens; 72 h, MTT, Hep 2
# Procedure, shortened: as §2
# MG63 (osteosarcoma) = experiment: as above; format: cell-based, human; conditions: Homo sapiens; 72 h, MTT, MG-63
# Procedure, shortened: as §2
# [9] = system: PANC-1 (pancreatic cancer); experiment: as above; format: cell-based, human; conditions: Homo sapiens; 72 h, MTT, PANC-1
# Procedure, shortened: as §2
# PC-3 (prostate cancer) = experiment: as above; format: cell-based, human; conditions: Homo sapiens; 72 h, MTT, PC-3
# Procedure, shortened: as §2
# A549 (human lung cancer) = experiment: as above; format: cell-based; conditions: Homo sapiens; 72 h, MTT, A549
# Procedure, shortened: as §2
# [10] = system: Becap37 (human breast cancer cell); experiment: as above; format: cell-based; conditions: Homo sapiens; 72 h, MTT, Becap-37
# Procedure, shortened: as §2
# [11] = system: CNE (nasopharyngeal carcinoma cell); experiment: as above; format: cell-based; conditions: Homo sapiens
# Procedure, shortened: as §2
# [12] = system: Hela (human cervical cancer cell); experiment: as above; format: cell-based; conditions: Homo sapiens; 72 h, MTT, Hela
# Procedure, shortened: as §2
# [13] = system: Huh7 (human liver cancer cell); experiment: as above; format: cell-based; conditions: Homo sapiens; 72 h, MTT, Huh-7
# Procedure, shortened: as §2
# [14] = system: MGC 803 (human gastric cancer cell); experiment: as above; format: cell-based; conditions: Homo sapiens
# Procedure, shortened: as §2
# [15] = system: RKO (human colon adenocarcinoma cell); experiment: as above; format: cell-based; conditions: Homo sapiens; 72 h, MTT, RKO
# Procedure, shortened: as §2
# [16] = system: SK-OV-3 (ovarian cancer cell); experiment: as above; format: cell-based; conditions: Homo sapiens
# Procedure, shortened: as §2
# [17] = system: U87 MG (malignant glioma cell); experiment: as above; format: cell-based; conditions: Homo sapiens, U-87 MG
# Procedure, shortened: as §2
IC50 [1] [mg/L],IC90 [1] [mg/L],IC50 [2] [mg/L],IC90 [2] [mg/L],IC50 [3] [mg/L],IC90 [3] [mg/L],IC50 [4] [mg/L],IC90 [4] [mg/L],IC50 [5] [mg/L],IC90 [5] [mg/L],IC50 [6] [mg/L],IC90 [6] [mg/L],IC50 [7] [mg/L],IC90 [7] [mg/L],IC50 [8] [mg/L],IC90 [8] [mg/L],IC50 (MG63 (osteosarcoma)) [mg/L],IC90 (MG63 (osteosarcoma)) [mg/L],IC50 [9] [mg/L],IC90 [9] [mg/L],SMILES,further results
4.86,7.6,4.64,10.9,2.18,8.89,4.92,15.5,2.6,4,0.87,5.13,8.69,27,9.9,22.2,6.2,10.4,5.11,15,COc1ccc2cc1Oc1ccc(cc1)C[C@H]1c3cc(c(OC)cc3CCN1C)Oc1c(OC)c(OC)c(COC(=O)c3cccs3)c3c1[C@H](C2)N(C)CC3 [BS-TE-215],IC50 (PC-3 (prostate cancer)): 7.08 mg/L; IC90 (PC-3 (prostate cancer)): 9 mg/L; IC50 (A549 (human lung cancer)): 11.9 mg/L; IC90 (A549 (human lung cancer)): > 16 mg/L; IC50 [10]: 8.3 mg/L; IC90 [10]: 15 mg/L; IC50 [11]: 6.97 mg/L; IC90 [11]: 12.2 mg/L; IC50 [12]: 6.52 mg/L; IC90 [12]: 13 mg/L; IC50 [13]: 3.54 mg/L; IC90 [13]: 9.62 mg/L; IC50 [14]: 5.78 mg/L; IC90 [14]: 8 mg/L; IC50 [15]: 6.04 mg/L; IC90 [15]: 9.22 mg/L; IC50 [16]: 7.5 mg/L; IC90 [16]: > 16 mg/L; IC50 [17]: 3.14 mg/L; IC90 [17]: 8 mg/L
2.53,7.29,2.52,8.03,3.06,16,3.15,8.98,1.4,2,0.54,3.14,5.36,29.9,5.42,16,4.5,8.8,15.8,> 16,COc1ccc2cc1Oc1ccc(cc1)C[C@H]1c3cc(c(OC)cc3CCN1C)Oc1c(OC)c(OC)c(COC(=O)c3ccco3)c3c1[C@H](C2)N(C)CC3 [BS-TE-216],IC50 (PC-3 (prostate cancer)): 4.11 mg/L; IC90 (PC-3 (prostate cancer)): 7.84 mg/L; IC50 (A549 (human lung cancer)): 8.6 mg/L; IC90 (A549 (human lung cancer)): > 16 mg/L; IC50 [10]: 5.8 mg/L; IC90 [10]: 13 mg/L; IC50 [11]: 3.86 mg/L; IC90 [11]: 13.3 mg/L; IC50 [12]: 3.82 mg/L; IC90 [12]: 10.8 mg/L; IC50 [13]: 2.66 mg/L; IC90 [13]: 4.71 mg/L; IC50 [14]: 2.51 mg/L; IC90 [14]: 4 mg/L; IC50 [15]: 2.21 mg/L; IC90 [15]: 4.67 mg/L; IC50 [16]: 7 mg/L; IC90 [16]: > 16 mg/L; IC50 [17]: 1.24 mg/L; IC90 [17]: 3.74 mg/L
1.02,2.12,1.09,6.61,0.49,2.81,1.67,5.53,0.8,2,0.06,2.95,2.93,22.3,3.5,12.5,2,3.8,2.79,7.35,COc1ccc2cc1Oc1ccc(cc1)C[C@H]1c3cc(c(OC)cc3CCN1C)Oc1c(OC)c(OC)c(CNC3CC3)c3c1[C@H](C2)N(C)CC3 [BS-TE-301],IC50 (PC-3 (prostate cancer)): 3.02 mg/L; IC90 (PC-3 (prostate cancer)): 4.68 mg/L; IC50 (A549 (human lung cancer)): 5.1 mg/L; IC90 (A549 (human lung cancer)): > 16 mg/L; IC50 [10]: 2.3 mg/L; IC90 [10]: 5.6 mg/L; IC50 [11]: 3.7 mg/L; IC90 [11]: 6.2 mg/L; IC50 [12]: 1.97 mg/L; IC90 [12]: 3.83 mg/L; IC50 [13]: 1.27 mg/L; IC90 [13]: 2.4 mg/L; IC50 [14]: 1.74 mg/L; IC90 [14]: 7.1 mg/L; IC50 [15]: 1.22 mg/L; IC90 [15]: 2.94 mg/L; IC50 [16]: 3.77 mg/L; IC90 [16]: 24.3 mg/L; IC50 [17]: 0.69 mg/L; IC90 [17]: 3.05 mg/L
